In US8158628B2, “Sulfonylated 1,2,3,4-tetrahydropyrrolo[1,2-a]pyrazine compounds and their use as pharmaceuticals” (Gruenenthal GmbH, priority 2009, dated 2012) one finds inhibition data, which are given here for 18 molecules.

In one assay the target is T1, B1R of the rat (Rattus norvegicus, UniProt P97583).
T1 construct: expressed in transfected cells; host or cells: CHO K1 cells (Chinese hamster ovary), stably transfected
T1 sequence (P97583 1-337): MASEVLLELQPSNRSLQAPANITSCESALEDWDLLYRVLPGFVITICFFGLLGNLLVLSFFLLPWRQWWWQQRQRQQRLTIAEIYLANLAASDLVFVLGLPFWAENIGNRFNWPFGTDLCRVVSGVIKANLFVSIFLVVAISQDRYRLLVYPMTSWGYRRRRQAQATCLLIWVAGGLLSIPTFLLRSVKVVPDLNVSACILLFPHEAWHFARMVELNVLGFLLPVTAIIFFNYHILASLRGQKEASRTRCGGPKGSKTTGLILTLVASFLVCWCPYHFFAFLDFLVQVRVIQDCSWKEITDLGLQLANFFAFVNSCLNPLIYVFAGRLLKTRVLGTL
Put plainly: FLIPR Ca2+ functional assay, B1R antagonism, rat B1R in CHO K1 cells. The class given is cell-based. Particulars: test substance 10 μM; rB1R CHO K1 cells; agonist Des-Arg9 bradykinin at EC80; % of maximum achievable inhibition. In a few lines: (§1)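 Stably transfected CHO K1 cells loaded with Fluo-4; Ca2+ fluorescence read on FLIPR (ex 488/em 540 nm). Compound preincubated 10-20 min, then agonist at EC80: Lys-Des-Arg9 bradykinin (human) or Des-Arg9 bradykinin (rat). % inhibition vs maximal inhibition; IC50 from concentration series, n=2-3, N>=2.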

Another assay deals with T2, human B1R (Homo sapiens, UniProt P46663).
T2 construct: expressed in transfected cells; host or cells: CHO K1 cells (Chinese hamster ovary), stably transfected
T2 sequence (P46663 1-353): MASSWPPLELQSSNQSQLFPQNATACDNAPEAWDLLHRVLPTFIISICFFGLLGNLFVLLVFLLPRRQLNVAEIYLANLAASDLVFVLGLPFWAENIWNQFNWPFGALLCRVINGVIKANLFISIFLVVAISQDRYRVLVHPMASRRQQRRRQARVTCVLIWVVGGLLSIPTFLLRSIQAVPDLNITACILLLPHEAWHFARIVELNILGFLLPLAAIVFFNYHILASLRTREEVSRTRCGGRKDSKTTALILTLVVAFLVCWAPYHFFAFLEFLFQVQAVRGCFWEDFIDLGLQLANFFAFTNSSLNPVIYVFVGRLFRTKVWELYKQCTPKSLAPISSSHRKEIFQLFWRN
Put plainly: FLIPR Ca2+ functional assay, B1R antagonism, human B1R in CHO K1 cells. Particulars: test substance 10 μM; hB1R CHO K1 cells; agonist Lys-Des-Arg9 bradykinin at EC80; % of maximum achievable inhibition. The format is cell-based. In a few lines:
as §1

As for `COc1ccc2cc(S(=O)(=O)N3CCn4cccc4C3CC(=O)NC3CCc4cc(CN(C)C(C)(C)C)ccc4C3)ccc2c1` (stereo not drawn) [Example 97, N-[6-[(tert-Butyl-methyl-amino)-methyl]-1,2,3,4-tetrahydro-naphthalen-2-yl]-2-[2-[(6-methoxy-naphthalen-2-yl)sulfonyl]-1,2,3,4-tetrahydro-pyrrolo[1,2-a]pyrazin-1-yl]-acetamide], the inhibition (commonly the drop in the measured response relative to a control, in per cent) at 10 µM at B1R of the rat was found to be 102%; on human B1R, 99.8%.

`CNCc1ccc2c(c1)CCCC2NC(=O)CC1c2cccn2CCN1S(=O)(=O)c1ccc2cc(OC)ccc2c1` (stereo not drawn) [Example 134, 2-[2-[(6-Methoxy-naphthalen-2-yl)sulfonyl]-1,2,3,4-tetrahydro-pyrrolo[1,2-a]pyrazin-1-yl]-N-[6-(methylamino-methyl)-1,2,3,4-tetrahydro-naphthalen-1-yl]-acetamide]: the inhibition at 10 µM was determined as 103% at B1R of the rat and 99.8% on human B1R.

On to `COc1cc(C)c(S(=O)(=O)N2CCn3cccc3C2COCC(=O)N2CCC(c3ccncc3)CC2)c(C)c1` (stereo not drawn) [Example 34, 2-[[2-[(4-Methoxy-2,6-dimethyl-phenyl)sulfonyl]-1,2,3,4-tetrahydro-pyrrolo[1,2-a]pyrazin-1-yl]-methoxy]-1-(4-pyridin-4-yl-piperidin-1-yl)-ethanone], for which the values for the inhibition at 10 µM on B1R of the rat and on human B1R were 103% and 99.2%, respectively.

As to `O=C(CC1c2cccn2CCN1S(=O)(=O)c1cccc(C(F)(F)F)c1)NC1CCCc2cc(CN3CCCC3)ccc21` (stereo not drawn) [Example 86, N-[6-(Pyrrolidin-1-yl-methyl)-1,2,3,4-tetrahydro-naphthalen-1-yl]-2-[2-[[3-(trifluoromethyl)phenyl]sulfonyl]-1,2,3,4-tetrahydro-pyrrolo[1,2-a]pyrazin-1-yl]-acetamide], the inhibition at 10 µM stood at 97.5% on B1R of the rat and 99.8% on human B1R.

For the molecule `CCC(C)NCc1ccc2c(c1)CCCC2NC(=O)CC1c2cccn2CCN1S(=O)(=O)c1cccc(C(F)(F)F)c1` (stereo not drawn) [Example 131, N-[6-[(1-Methyl-propylamino)-methyl]-1,2,3,4-tetrahydro-naphthalen-1-yl]-2-[2-[[3-(trifluoromethyl)phenyl]sulfonyl]-1,2,3,4-tetrahydro-pyrrolo[1,2-a]pyrazin-1-yl]-acetamide], the inhibition at 10 µM at B1R of the rat was found to be 101%; at human B1R, 99.8%.

On to `CN(CCC1CCN(c2ccncc2)CC1)C(=O)COCC1c2cccn2CCN1S(=O)(=O)c1ccccc1C(F)(F)F` (stereo not drawn) [Example 12, N-Methyl-N-(2-(1-(pyridin-4-yl)piperidin-4-yl)ethyl)-2-((2-(2-(trifluoromethyl)phenylsulfonyl)-1,2,3,4-tetrahydropyrrolo[1,2-a]pyrazin-1-yl)methoxy)acetamide], for which the inhibition at 10 µM on B1R of the rat was found to be 99.3%; at human B1R, 99.5%.

As for `CCC(C)NCc1ccc2c(c1)CCCC2NC(=O)CC1c2cccn2CCN1S(=O)(=O)c1ccc(C)c(Cl)c1` (stereo not drawn) [Example 132, 2-[2-[(3-Chloro-4-methyl-phenyl)sulfonyl]-1,2,3,4-tetrahydro-pyrrolo[1,2-a]pyrazin-1-yl]-N-[6-[(1-methyl-propylamino)-methyl]-1,2,3,4-tetrahydro-naphthalen-1-yl]-acetamide], the inhibition at 10 µM came to 102% on B1R of the rat and 99.8% at human B1R.

As for `Cc1ccc(S(=O)(=O)N2CCn3cccc3C2CC(=O)NC2CCc3cc(CN4CCCCC4)ccc3C2)cc1` (stereo not drawn) [Example 29, N-(6-(piperidin-1-ylmethyl)-1,2,3,4-tetrahydronaphthalen-2-yl)-2-(2-tosyl-1,2,3,4-tetrahydropyrrolo[1,2-a]pyrazin-1-yl)acetamide], the inhibition at 10 µM on B1R of the rat is 102%; at human B1R, 99.8%.

Take `O=C(CC1c2cccn2CCN1S(=O)(=O)c1cccc(C(F)(F)F)c1)NC1CCCc2cc(CN3CCCc4ccccc43)ccc21` (stereo not drawn) [Example 90, N-[6-(1,2,3,4-Tetrahydro-quinolin-1-yl-methyl)-1,2,3,4-tetrahydro-naphthalen-1-yl]-2-[2-[[3-(trifluoromethyl)phenyl]sulfonyl]-1,2,3,4-tetrahydro-pyrrolo[1,2-a]pyrazin-1-yl]-acetamide]: the inhibition at 10 µM on B1R of the rat worked out at 51.4%; at human B1R, 54.6%.

As to `O=C(CC1c2cccn2CCN1S(=O)(=O)c1cccc(C(F)(F)F)c1)NC1CCc2cc(CNCc3ccccc3)ccc2C1` (stereo not drawn) [Example 83, N-[6-[(Benzylamino)-methyl]-1,2,3,4-tetrahydro-naphthalen-2-yl]-2-[2-[[3-(trifluoromethyl)phenyl]sulfonyl]-1,2,3,4-tetrahydro-pyrrolo[1,2-a]pyrazin-1-yl]-acetamide], the inhibition at 10 µM was determined as 101% at B1R of the rat and 99.3% at human B1R.

For `Cc1ccc(S(=O)(=O)N2CCn3cccc3C2CC(=O)NC2CCc3cc(CN4CCN(C)CC4)ccc3C2)cc1Cl` (stereo not drawn) [Example 61, 2-[2-[(3-Chloro-4-methyl-phenyl)sulfonyl]-1,2,3,4-tetrahydro-pyrrolo[1,2-a]pyrazin-1-yl]-N-[6-[(4-methyl-piperazin-1-yl)-methyl]-1,2,3,4-tetrahydro-naphthalen-2-yl]-acetamide], the inhibition at 10 µM at B1R of the rat was 100%; on human B1R it was 99.7%.

Regarding `Cc1ccc(S(=O)(=O)N2CCn3cccc3C2CC(=O)NC2CCc3cc(CN(C)C(C)(C)C)ccc3C2)cc1` (stereo not drawn) [Example 73, N-[6-[(tert-Butyl-methyl-amino)-methyl]-1,2,3,4-tetrahydro-naphthalen-2-yl]-2-[2-(p-tolylsulfonyl)-1,2,3,4-tetrahydro-pyrrolo[1,2-a]pyrazin-1-yl]-acetamide], the inhibition at 10 µM at B1R of the rat came out at 103%; on human B1R, 99.8%.

As for `COc1cc(C)c(S(=O)(=O)N2CCn3cccc3C2COCC(=O)N2[C@@H]3CC[C@H]2C[C@H](Oc2ccncc2)C3)c(C)c1` (stereo partly drawn) [Example 23, 2-((2-(4-Methoxy-2,6-dimethylphenylsulfonyl)-1,2,3,4-tetrahydropyrrolo[1,2-a]pyrazin-1-yl)methoxy)-1-((1R,3S,5S)-3-(pyridin-4-yloxy)-8-azabicyclo[3.2.1]octan-8-yl)ethanone], the inhibition at 10 µM at B1R of the rat came to 108%; at human B1R, 100%.

As for `Cc1ccc(S(=O)(=O)N2CCn3cccc3C2CC(=O)NC2CCCc3cc(CNC(C)(C)C)ccc32)cc1` (stereo not drawn) [Example 72, N-[6-[(tert-Butylamino)-methyl]-1,2,3,4-tetrahydro-naphthalen-1-yl]-2-[2-(p-tolylsulfonyl)-1,2,3,4-tetrahydro-pyrrolo[1,2-a]pyrazin-1-yl]-acetamide], the inhibition at 10 µM at B1R of the rat was 101%; at human B1R, 99.9%.

Turning to `COc1ccc2cc(S(=O)(=O)N3CCn4cccc4C3CC(=O)NC3CCCc4cc(CNC(C)(C)C)ccc43)ccc2c1` (stereo not drawn) [Example 114, N-[6-[(tert-Butylamino)-methyl]-1,2,3,4-tetrahydro-naphthalen-1-yl]-2-[2-[(6-methoxy-naphthalen-2-yl)sulfonyl]-1,2,3,4-tetrahydro-pyrrolo[1,2-a]pyrazin-1-yl]-acetamide], the inhibition at 10 µM was determined as 99.6% at B1R of the rat and 100% at human B1R.

On to `Cc1ccc(S(=O)(=O)N2CCn3cccc3C2CC(=O)NC2CCCc3cc(CN4CCCc5ccccc54)ccc32)cc1Cl` (stereo not drawn) [Example 119, 2-[2-[(3-Chloro-4-methyl-phenyl)sulfonyl]-1,2,3,4-tetrahydro-pyrrolo[1,2-a]pyrazin-1-yl]-N-[6-(1,2,3,4-tetrahydro-quinolin-1-yl-methyl)-1,2,3,4-tetrahydro-naphthalen-1-yl]-acetamide], for which the inhibition at 10 µM was 62.2% on B1R of the rat and 23.4% at human B1R.

As for `Cc1cc(S(=O)(=O)N2CCn3cccc3C2CC(=O)NC2CCc3cc(CN4CCCCC4)ccc3C2)c(C)cc1Cl` (stereo not drawn) [Example 25, 2-(2-(4-chloro-2,5-dimethylphenylsulfonyl)-1,2,3,4-tetrahydropyrrolo[1,2-a]pyrazin-1-yl)-N-(6-(piperidin-1-ylmethyl)-1,2,3,4-tetrahydronaphthalen-2-yl)acetamide], the inhibition at 10 µM stood at 103% on B1R of the rat and 96% on human B1R.

With `Cc1ccc(S(=O)(=O)N2CCn3cccc3C2CC(=O)NC2CCc3cc(CN4C5CCCC4CC5)ccc3C2)cc1` (stereo not drawn) [Example 77, N-[6-(8-Azabicyclo[3.2.1]octan-8-yl-methyl)-1,2,3,4-tetrahydro-naphthalen-2-yl]-2-[2-(p-tolylsulfonyl)-1,2,3,4-tetrahydro-pyrrolo[1,2-a]pyrazin-1-yl]-acetamide], the inhibition at 10 µM at B1R of the rat turned out to be 103%; on human B1R, 99.2%.
